This note sets out measurements from publication PMC10810651, “Discovery of novel and potent CDK8 inhibitors for the treatment of acute myeloid leukaemia” (Journal of Enzyme Inhibition and Medicinal Chemistry, 2024).

Test [1] has as its target T1, CDK8 (Homo sapiens, UniProt P49336). Kind of test: CDK8 enzyme activity assay (ADP-Glo Kinase Assay). Type of test: biochemical. Conditions: means ± SD. As for the experimental part: Some of them with high inhibition rates were further measured for their IC50 values. Compound SEL-120 34 A was selected as a positive control. [table] [table] page 14: CO2 atmosphere incubator for 24 h. Then, medium with compound at the concentrations of 100, 20, 4, 0.8, 0.016 μM was added into each well for another 48 h and incubated with CCK-8 (10 μL) for 2 h at 37 °C. The absorbance value at 450 nm was measured by the microplate reader (PerkinElmer Envision). 1.4 Kinase Assay The kinase inhibition was detected by ADP-Glo™ Kinase Assay (Promega) using a black 384-well plate. The active CDK8 kinase was diluted in mixture (5 ng enzyme, 0.5 μg substrate, 50 μM DTT, 1 μL reaction buffer and added ddH2O to 3 μL each well) and the final ATP concentrations of was 50 μM. After incubation at room temperature, ADP-Glo™ solution and kinase detection reagent was added. The data was collected by the microplate reader. 1.5 Cellular thermal shift assay HCT-116 cells were cultured in cell culture dishes and treated with 5 μM compound 12 for 4 h. HCT-116 cells were collected, washed by PBS and cell suspensions were divided into 12 PCR tubes equally. Then,11 tubes were heated at 37, […] After that, cells were broken by ultr asonic treatment and centrifuged at 12000 rpm for 20 min. The supernatant was analyzed by western blot. 1.6 Biotin-pulldown assay After co-treated with 2 μM biotinylated compound and compound 12 for 12 h, HCT-116 cells were lysed with NP-40 containing PMSF and centrifuged at 14000 r for 30 min at 4 °C. Then, 40 μL supernatant was used as the input by adding 10 μL 5×SDS loading buffer, and the remains were mixed with Streptavidin Agarose (Novex, Carlsbad, CA, USA). After 6 h incuba tion at 4 °C, the beads were washed three times using lysis buffer and resuspended in 2× SDS loading buffer. HEK -293T cells overexpressed flag -tagged CDK8 were treated using above method. The samples were analyzed by western blot.
Target sequence in this assay (P49336 whole entry): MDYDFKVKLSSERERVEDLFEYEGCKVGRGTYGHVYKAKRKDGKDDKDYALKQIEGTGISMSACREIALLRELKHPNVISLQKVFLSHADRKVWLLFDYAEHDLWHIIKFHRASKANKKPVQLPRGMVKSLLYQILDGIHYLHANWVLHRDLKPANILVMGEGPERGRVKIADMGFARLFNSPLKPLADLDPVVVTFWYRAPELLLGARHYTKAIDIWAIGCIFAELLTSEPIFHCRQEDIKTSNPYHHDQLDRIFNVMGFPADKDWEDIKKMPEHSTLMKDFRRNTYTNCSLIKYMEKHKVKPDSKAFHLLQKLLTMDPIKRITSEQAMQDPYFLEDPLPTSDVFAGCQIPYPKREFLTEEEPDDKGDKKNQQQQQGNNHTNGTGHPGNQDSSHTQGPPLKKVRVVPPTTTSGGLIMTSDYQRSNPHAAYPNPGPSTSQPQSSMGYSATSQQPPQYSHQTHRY
Target sequence in this assay (P24863 whole entry partner): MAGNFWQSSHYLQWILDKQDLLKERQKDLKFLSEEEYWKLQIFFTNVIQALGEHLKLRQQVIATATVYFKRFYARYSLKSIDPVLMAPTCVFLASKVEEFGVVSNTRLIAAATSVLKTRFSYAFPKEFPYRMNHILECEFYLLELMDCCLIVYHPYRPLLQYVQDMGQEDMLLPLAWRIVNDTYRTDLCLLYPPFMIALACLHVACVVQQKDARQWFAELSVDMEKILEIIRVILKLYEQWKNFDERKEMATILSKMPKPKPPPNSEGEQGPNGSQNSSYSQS
A general note: ADP-Glo first removes unused ATP, then detects ADP through luciferase.

Another test has as its system STAT5 S726. Kind of test: Phosphorylation of STAT5 S726, western blot. It counts as cell-based. The following applies: HL-60 cells, 12 h. As for the experimental part:
It has been reported that CDK8 could specifically target the transactivation domain of STAT1 at Ser727 phosphorylation. HCT-116 cells were treated with compounds 12 with different concentrations of 1 μM, 2 μM, 4 μM separately to verify compound 12 could inhibit the phosphorylation of STAT1 Ser727. […] It’s reported that CDK8 was also involved in S726 phosphorylation of STAT5 in AML cells.
Figure 6. Compound 12 inhibited phosphorylation of STAT1 S727 and STAT5 S726. (A) Compound 12 suppressed the phosphorylation of STAT1 S727 in a dose-dependent manner. HCT-116 cells were treated with compound for 12 h. (B) Compound 12 suppressed the phosphorylation of STAT5 S726 in a dose dependent manner. HL-60 cells were treated with or without compound for 12 h. The samples were analysed by Western blot.
1.7 The effect of compound on phosphorylation of STAT1 S727
HCT-116 cells were seeded into 60 mm cultural dishes at a density of 1.5×10^6 cells per dishes. […] Levels of total STAT1, phosphorylated STAT1 S727, Y701 and GAPDH were analyzed. […]
Levels of total STAT5, phosphorylated STAT5 S726 and GAPDH were analyzed.
The results were expressed as the means ± SEMs (SPSS software), and the differences between groups were evaluated using Turkey’s method (GraphPad Software). […]
On the technique in general: In western blotting, separated proteins are transferred to a membrane and probed.

The target of test [2] is T1, CDK8. Kind of test: Biotin-pulldown assay. On the set-up: endogenous in cells; host or cells: HCT-116. It counts as binding. The following applies: HCT-116 or CDK8-transfected HEK293T cells; 2 μM biotinylated compound; 1, 2, 4 μM. As for the experimental part:
In previous study, a biotinylated compound with favourable CDK8 inhibition activity was designed and synthesized. Here, the pulldown assay was performed to determine compound 12 could bind CDK8. HCT-116 cells or HEK293T cells transfected with CDK8 plasmid labelled were treated with 2 μM biotinylated compound and compounds 12 with different concentrations of 1 μM, 2 μM, 4 μM separately.
CO2 atmosphere incubator for 24 h. Then, medium with compound at the concentrations of 100, 20, 4, 0.8, 0.016 μM was added into each well for another 48 h and incubated with CCK-8 (10 μL) for 2 h at 37 °C. The absorbance value at 450 nm was measured by the microplate reader (PerkinElmer Envision).
The kinase inhibition was detected by ADP-Glo™ Kinase Assay (Promega) using a black 384-well plate. The active CDK8 kinase was diluted in mixture (5 ng enzyme, 0.5 μg substrate, 50 μM DTT, 1 μL reaction buffer and added ddH2O to 3 μL each well) and the final ATP concentrations of was 50 μM. […] The data was collected by the microplate reader. […]
were broken by ultr asonic treatment and centrifuged at 12000 rpm for 20 min. The supernatant was analyzed by western blot. […]
After co-treated with 2 μM biotinylated compound and compound 12 for 12 h, HCT-116 cells were lysed with NP-40 containing PMSF and centrifuged at 14000 r for 30 min at 4 °C. […] The samples were analyzed by western blot.
Target sequence in this assay (P49336 whole entry): as the sequence (P49336 whole entry) above

In another test the target is CDK6 (Homo sapiens, UniProt Q00534). Kind of test: CDKs selectivity, CDK6. Type of test: biochemical. The source says:
CDK7 and CDK9 with the same transcription function and CDK2 and CDK6 were selected to evaluate the selectivity of compound 12.

Each structure is given as a SMILES string.

Sequence of CDK6 (Q00534 whole entry): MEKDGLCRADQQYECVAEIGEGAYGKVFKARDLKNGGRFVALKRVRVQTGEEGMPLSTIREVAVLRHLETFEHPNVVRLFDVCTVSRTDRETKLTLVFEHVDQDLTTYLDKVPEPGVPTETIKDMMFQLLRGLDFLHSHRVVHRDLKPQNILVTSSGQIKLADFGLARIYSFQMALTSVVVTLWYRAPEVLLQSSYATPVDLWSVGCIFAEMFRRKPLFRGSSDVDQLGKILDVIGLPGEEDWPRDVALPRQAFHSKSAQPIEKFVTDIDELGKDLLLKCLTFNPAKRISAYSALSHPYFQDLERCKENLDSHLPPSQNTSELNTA

As for `NC(=O)c1cccc(-c2cnc3[nH]cc(-c4ccoc4)c3c2)c1` [Compound 12, 3-(3-(furan-3-yl)-1H-pyrrolo[2,3-b]pyridin-5-yl)benzamide], the inhibition at 0.2 µM on CDK8 [1] (CDK8, 200 nM, two experiments, read-out: Inhibition rate @ 200 nM (%)) was 80.9 ± 3.5%. The IC50 at CDK8 [1] (three experiments) was determined as 39.2 ± 6.3 nM; at CDK6, 352 ± 36.5 nM. For the same molecule, in the test on STAT5 S726, the “Phosphorylation of STAT5 S726” value was “could inhibit phosphorylation of STAT5 S726 in a dose-dependent manner”. On CDK8 [2], the “Competition with biotinylated compound for binding to CDK8” value was “could inhibit the binding of biotinylated compound to CDK8”.

By inhibition is commonly meant the change of the read-out against control, counted positive when it falls. The term IC50 denotes the concentration that gives 50% inhibition. The low end stands for higher potency, the high end for lower potency.
